Three compounds from patent US20060198882A1, “Stable liposomes or micelles comprising a sphinolipid and a peg-lipopolymer” (priority 2003, published 2006) can be followed below.

Structures are written as SMILES. Values joined by “and” are separate entries in the source; they are usually repeats but may differ in a detail not shown here. Equal values may be shown once. Read-outs that look alike come from different tables or passages of the source.

Series [1] in a line: Size distribution of ceramide dispersions by DLS. In kind it is physicochemical. How it is done: The particle size distribution of all liposome dispersions prepared was determined at 25° C. by dynamic light-scattering (DLS) using the ALV-NIBS/HPPS ALV-Laser, Vertriebsgesellschaft GmbH, (Langen, Germany) instrument.
However, so far the biological activity of the ceramides was not evaluated in vivo in spite their potential beneficial activity due to difficulties in their delivery. As mentioned above, ceramides by themselves are difficult to be dispersed in serum-free medium. […] When a volume of ceramides (C2Cer, C6Cer, and C16Cer) in ethanol:dodecane (98:2 v/v) was diluted into 100 volumes of serum-free medium a milky translucent dispersion was formed.
However, when these ceramide dispersions were diluted further (final dilution 1:1000) in serum-containing medium, a 4-6 fold increase in particle size was observed. As a control, when the solvents ethanol:dodecane (98:2) were mixed by themselves with medium without ceramides, no particles were detected by DLS. Also, for comparison, when ceramide solutions in ethanol (without dodecane) were diluted 1:100 in serum-containing medium very large particles were observed by DLS (Table 11).

In the next series the test system is OV-1063. Put plainly: Methylene blue assay of cell survival. To be noted: Table 8B. It counts as cell-based, human. The text has this:
(§1) Several tumor cell lines in monolayers were used. A human ovarian carcinoma cell line (OV-1063), established at the Hadassah University Hospital, a human colon carcinoma cell line (C-26), a DOX-sensitive M-109S ([…]), and a DOX-resistant, M-109R ([…]). All cell lines were maintained in RPMI-1640 medium supplemented with 10% FCS, antibiotics, and glutamine. All culture medium components were purchased from Biological Industries (Beit-HaEmek, Israel). Both cell lines were maintained at 37° C. in a water-jacketed CO2 incubator.
(§2) a) Various ceramides (Cer) with different chain lengths: short (C2 Cer and C4 Cer), medium (C6 Cer and C8 Cer), and long (C16 Cer) were first dissolved in 100% ethanol to a concentration of 30 mM, added to a serum-containing medium and mixed immediately. The final ethanol concentration in the serum-containing culture medium ranged from 0.1-0.5% (depending on the type of ceramide (Cer)).
(§3) b) Various ceramides with different chain lengths: short C2 Cer, medium C6 Cer, and long C16 Cer were dissolved in ethanol:dodecane (98:2 v/v) to a concentration of 30 mM and added to serum-free medium and mixed. Final concentrations of the ethanol and dodecane in the culture medium containing 10% of FCS ranged from 0.098-0.49% and 0.002-0.01%, respectively, depending on the type of ceramide.
(§4) The cytotoxicity of the examined assemblies comprising ceramide was tested by the methylene blue ([…]) staining assay [Gorodetsky, R. et al. Int. J. Cancer. 75:635-642 (1998)]. A known number of exponentially growing cells in 200 μL of medium were plated in 96-microwell, flat-bottomed plates. For each of the variants tested, 4 wells were used. Following 24 hr of incubation in culture, 20 μL of different concentrations of the examined assemblies were added to each well containing untreated cells.
(§5) The following controls were used: Citrate buffer (5 mM, pH 7); Ethanol solution in medium RPMI 1640 (final concentration of 0.1%); A solution RPMI 1640 of ethanol:dodecane (98:2 […]) at a final concentration of 0.1% and 0.2%, respectively.
(§6) Cells were exposed to assemblies for 4, 24, 72 or 96 hr. At the end of assembly exposure, for a fixed time interval, the drug-treated cells, as well as parallel control cells, were washed, and the incubation continued in fresh medium until termination of the experiment. Following 72 hr or 96 hr of growth, cells were fixed by adding 50 μL of 2.5% glutaraldehyde to each well for 15 min. Fixed cells were rinsed 10 times with deionized water and once with borate buffer (0.1 M, pH 8.5), dried, and stained with MB (100 μL of 1% solution in 0.1 M borate buffer, pH 8.5) for 1 h at room temperature (r.t.). Stained cells were rinsed thoroughly with de-ionized water to remove any non-cell-bound dye and then dried. The MB bound to the fixed cells was extracted by incubation at 37° C. with 200 μL of 0.1 N HCl for 1 h, and the net optical density of the dye in each well was determined by a plate spectrophotometer (Labsystems Multyskan Bichromatic, Finland) at 620 nm.

Another series deals with C-26. Put plainly: Methylene blue assay of cell survival. It counts as cell-based, human.
Description: as §1, §2, §3, §4, §5, §6

Series [2] in a line: Partition in the two phases of the Dole system. In kind it is physicochemical. The conditions noted are these: for % of lipid in heptane-rich upper phase / % of lipid in isopropanol/water lower phase: Dole two phase system. Here is the method:
The distribution of the C18 sphingosine-based ceramides with different acyl chain lengths and of DMS between the polar phase and respectively less polar phase (as defined below) of the Dole two phase system was determined. […] The different ceramides included: short (C2 Cer and C4 Cer), medium (C6 Cer and C8 Cer), long (C16 Cer). […] In: Liposome Technology 2nd Edn., G Gregoriadis (Ed.) CRC Press, Boca Raton, 1993, vol. 1, pp: 527-616]. The amount of each of the lipids used in each of the two phases was measured by thin-layer chromatography (TLC). For ceramide quantification TLC was developed in a solvent system containing chloroform/methanol (95:5 v/v). For DMS quantification TLC was developed in a solvent system containing chloroform/methanol/ammonia (89/9/2 v/v). Further, the TLC plate was sprayed with Copper sulfate reagent composed of 100 g anhydrous copper sulfate containing 80 ml of phosphoric acid (85%), %) dissolved in 600 ml of DDW. Copper sulphate reagent was applied to the plates by spraying, then heated and lipids appeared as dark brown spot. […] Quantity of ceramides in each phase was calculated from a standard curve of appropriate ceramide. […] (1993)Supra]. The distribution between the two Dole system phases was determined by the equation (as exemplified for ceramide): [formula] [formula] Where Kp denotes the partition coefficient of a given lipid or amphiphile referred to in the equation as lipid; Cer denotes ceramide; up is an abbreviation for the heptane rich low polarity upper phase and lp is an abbreviation for the polar isopropanol water rich lower phase.

The mark [3] stands for this setting: read-out: IC50 (μM), 4 hr OV-1063.
Setting [4] is: read-out: IC50 (μM), 24 hr OV-1063.
Where [5] appears, read: read-out: IC50 (μM), 72 hr OV-1063.
[6] abbreviates: Table 8A, C-26 cells, free ceramide dispersions, read-out: IC50 (μM), 4 hr.
Setting [7] is: Table 8A, C-26 cells, read-out: IC50 (μM), 24 hr.
Setting [8] is: Table 8A, C-26 cells, read-out: IC50 (μM), 72 hr.
Setting [9] is: Table 8B, read-out: IC50 (μM), 4 hr C-26.
Where [10] appears, read: Table 8B, read-out: IC50 (μM), 24 hr C-26.
Setting [11] is: Table 8B, read-out: IC50 (μM), 72 hr C-26.

As to `CCCCCCCCCCCCC/C=C/[C@@H](O)[C@H](CO)NC(C)=O` [C2Cer, N-Acetyl-D-erythro-sphingosine], the “Size (nm), Ethanol dispersion in serum-containing medium (1:100)” value (shortened to “Size (nm), Ethanol dispersion”) in series [1] was determined as 6514 nm. Besides, the “Size (nm), Ethanol:dodecane (98:2) dispersion in serum-containing medium (1:1000)” value (“Size (nm), Ethanol:dodecane … (1:1000)” for short) in series [1] is 1400 nm. In series [1], the “Size (nm), Ethanol:dodecane (98:2) dispersion in serum-free medium (1:100)” value (“Size (nm) … in serum-free medium (1:100)” for short) came out at 330 nm. Besides, the IC50 (as a rule, the concentration that gives 50% inhibition) with OV-1063 (setting [3]) is more than 80 µM; in the series with OV-1063 (setting [4]) it was more than 30 µM; with OV-1063 (setting [5]), 25 ± 1.9 µM; with C-26 (setting [6]), more than 60 µM; in the series with C-26 (setting [7]), more than 30 µM; with C-26 (setting [8]), 20 ± 1 µM. Also, the values for the IC50 in the series on C-26 (setting [9]), with C-26 (setting [10]) and in the series with C-26 (setting [11]) were more than 60 µM, more than 30 µM and 20 ± 1 µM, respectively. In series [2], the “Kp (heptane rich/isopropanol and water rich partition coefficient)” value came to 0.54. For the same compound, the “% of lipid in heptane-rich upper phase” value in series [2] is 21% and 21.2%. The “% of lipid in isopropanol/water lower phase” value in series [2] was 79% and 78.8%.
On to `CCCCCCCCCCCCC/C=C/[C@@H](O)[C@H](CO)NC(=O)CCCCCCCCCCCCCCC` [C16Cer, N-palmitoyl-D-erythro-sphingosine], for which the “Size (nm), Ethanol dispersion” value in series [1] was 4740 nm. Besides, the “Size (nm), Ethanol:dodecane … (1:1000)” value in series [1] was 2824 nm. In series [1], the “Size (nm) … in serum-free medium (1:100)” value worked out at 790 nm. Besides, the IC50 with OV-1063 (setting [3]) was more than 100 µM; in the series with OV-1063 (setting [4]), more than 100 µM; in the series with OV-1063 (setting [5]) it was 90 µM; with C-26 (setting [6]), more than 100 µM; in the series with C-26 (setting [7]) it was more than 100 µM; in the series with C-26 (setting [8]), 80 µM. For the same compound, the IC50 in the series with C-26 (setting [9]) was more than 100 µM; in the series with C-26 (setting [10]) it was more than 100 µM; in the series with C-26 (setting [11]) it was 80 µM. In series [2], the “Kp (heptane rich/isopropanol and water rich partition coefficient)” value is on record as 8.21. Besides, the “% of lipid in heptane-rich upper phase” value in series [2] is reported as 89%. In addition, the “% of lipid in isopropanol/water lower phase” value in series [2] amounted to 11%.
For the compound `CCCCCCCCCCCCC/C=C/[C@@H](O)[C@H](CO)NC(=O)CCCCC` [C6Cer, N-hexanoyl-D-erythro-sphingosine], the “Size (nm), Ethanol dispersion” value in series [1] stood at 3780 nm. Further, the “Size (nm), Ethanol:dodecane … (1:1000)” value in series [1] is recorded as 2100 nm. In series [1], the “Size (nm) … in serum-free medium (1:100)” value is 330 nm. Further, the IC50 is 8 ± 0.1 µM in the series with OV-1063 (setting [3]); 4.5 ± 0.7 µM in the series with OV-1063 (setting [4]); 2.3 ± 1 µM in the series with OV-1063 (setting [5]); 11 ± 5 µM in the series with C-26 (setting [6]); 4.1 ± 1.6 µM with C-26 (setting [7]); 2.9 ± 1.2 µM in the series on C-26 (setting [8]). Further, the IC50 in the series with C-26 (setting [9]) worked out at 11 ± 5 µM; with C-26 (setting [10]) it was 4.1 ± 1.6 µM; with C-26 (setting [11]) it was 2.9 ± 1.2 µM. Further, in series [2], the “Kp (heptane rich/isopropanol and water rich partition coefficient)” value was determined as 3.17. The “% of lipid in heptane-rich upper phase” value in series [2] is 63% and 62.7%. Besides, the “% of lipid in isopropanol/water lower phase” value in series [2] is 37.3%.
